Results from US6384047B1, “Benzonaphthyridine” (Byk Gulden Lomberg Chemische Fabrik GmbH, priority 1997, dated 2002).

What was measured:
[1] = molecular target: T1, PDE2 (cGMP-stimulated) from rats' hearts (Rattus norvegicus, UniProt Q01062); assay: Inhibition of the PDE isoenzymes: PDE2; type: biochemical; details: in presence of cGMP (5 μM), cAMP as substrate, read-out: PDE2 inhibitory concentration as -log IC50 (converted)
T1 construct: PDE2 (cGMP-stimulated) from rats' hearts was purified chromatographically; from tissue; host or cells: rat heart
T1 sequence (Q01062 1-928): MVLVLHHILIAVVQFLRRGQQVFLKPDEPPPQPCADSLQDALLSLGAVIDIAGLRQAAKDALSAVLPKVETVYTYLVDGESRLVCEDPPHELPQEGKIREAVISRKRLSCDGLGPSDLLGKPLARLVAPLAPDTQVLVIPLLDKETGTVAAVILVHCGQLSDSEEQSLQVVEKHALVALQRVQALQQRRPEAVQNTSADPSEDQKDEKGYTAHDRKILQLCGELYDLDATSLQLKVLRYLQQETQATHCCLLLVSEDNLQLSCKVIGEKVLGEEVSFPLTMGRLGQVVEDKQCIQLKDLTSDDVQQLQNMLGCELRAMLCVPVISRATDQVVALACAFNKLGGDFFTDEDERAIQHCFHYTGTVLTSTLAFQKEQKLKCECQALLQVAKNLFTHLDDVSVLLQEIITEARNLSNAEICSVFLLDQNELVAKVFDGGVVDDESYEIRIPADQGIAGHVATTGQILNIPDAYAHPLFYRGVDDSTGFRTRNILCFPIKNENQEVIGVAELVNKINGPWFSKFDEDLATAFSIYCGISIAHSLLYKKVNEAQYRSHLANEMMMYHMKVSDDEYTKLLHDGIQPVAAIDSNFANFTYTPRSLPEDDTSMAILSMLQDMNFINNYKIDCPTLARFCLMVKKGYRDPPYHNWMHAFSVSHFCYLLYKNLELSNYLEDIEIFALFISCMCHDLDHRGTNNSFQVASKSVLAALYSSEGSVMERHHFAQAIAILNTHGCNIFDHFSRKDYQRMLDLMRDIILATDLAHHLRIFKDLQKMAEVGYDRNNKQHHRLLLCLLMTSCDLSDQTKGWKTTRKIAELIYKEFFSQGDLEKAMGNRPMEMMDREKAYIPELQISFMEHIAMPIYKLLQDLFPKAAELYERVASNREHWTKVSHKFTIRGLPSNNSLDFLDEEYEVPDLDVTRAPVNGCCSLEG
Protocol: (§1) The PDE activity was determined according to Thompson et al. (1) with a few modifications (2). The test samples contained 40 mM tris HCl (pH 7.4), 5 mM MgCl2, 0.5 μM cAMP or cGMP, [^3H] cAMP or [^3H]cGMP (about 50,000 cpm/sample), the PDE isoenzyme-specific additives described in greater detail below, the given concentrations of inhibitor and an aliquot of the enzyme solution in a total sample volume of […]. […] After preincubation at 37° C. for 5 minutes, the reaction was started by addition of the substrate (cAMP or cGMP). The samples were incubated at 37° C. for a further 15 min. The reaction was stopped by addition of 50 μl of 0.2N HCl. After cooling on ice for 10 minutes and addition of 25 μg of 5′-nucleotidase (snake venom from Crotalus atrox), incubation was carried out again for 10 min. at 37° C. and the samples were then applied to QAE Sephadex A-25 columns. The columns were eluted with 2 ml of 30 mM ammonium formate (pH 6.0). The radioactivity of the eluate was measured and corrected by the corresponding blank values. The proportion of hydrolyzed nucleotide in no case exceeded 20% of the original substrate concentration.
PDE2 (cGMP-stimulated) from rats' hearts was purified chromatographically [Schudt et al. (4)] and investigated in the presence of cGMP (5 μM) using cAMP as a substrate.
(§2) The IC50 values were determined from the concentration inhibition curves by nonlinear regression using the program GraphPad InPlot™ (GraphPad Software Inc., Philadelphia, USA).

[2] = molecular target: T2, PDE3 (cGMP-inhibited), homogenates of human blood platelets (Homo sapiens, UniProt Q14432); assay: Inhibition of the PDE isoenzymes: PDE3; type: biochemical; details: cAMP as substrate, read-out: PDE3 inhibitory concentration as -log IC50 (converted)
T2 construct: were investigated in homogenates of human blood platelets; from tissue; host or cells: human blood platelets (homogenate)
Protocol: as §1
(§3) PDE3 (cGMP-inhibited) and PDE5 (cGMP-specific) were investigated in homogenates of human blood platelets [Schudt et al. (4)] using cAMP or cGMP as a substrate.
as §2

[3] = molecular target: T3, PDE5 (cGMP-specific), homogenates of human blood platelets (Homo sapiens, UniProt O76074); assay: Inhibition of the PDE isoenzymes: PDE5; type: biochemical; details: cGMP as substrate, read-out: PDE5 inhibitory concentration as -log IC50 (converted)
T3 construct: were investigated in homogenates of human blood platelets; from tissue; host or cells: human blood platelets (homogenate)
Protocol: as §1, §3, §2

[4] = molecular target: PDE4 (cAMP-specific), cytosol of human polymorphonuclear leucocytes (PMNL); assay: Inhibition of the PDE isoenzymes: PDE4; type: biochemical; details: cAMP as substrate, motapizone (1 μM) present
Protocol: as §1
PDE4 (cAMP-specific) was investigated in the cytosol of human polymorphonuclear leucocytes (PMNL) [isolated from leucocyte concentrates, see Schudt et al. (5)] using cAMP as a substrate. The PDE3 inhibitor motapizone (1 μM) was used in order to suppress the PDE3 activity emanating from contaminating blood platelets.
as §2

[5] = molecular target: PDE1 (Ca2+/calmodulin-dependent) from bovine brain; assay: Inhibition of the PDE isoenzymes: PDE1; type: biochemical; details: Ca2+ (1 mM) and calmodulin (100 nM), cGMP as substrate
Protocol: as §1
PDE1 (Ca^2+/calmodulin-dependent) from bovine brain: the inhibition of this isoenzyme was investigated in the presence of Ca^2+ (1 mM) and calmodulin (100 nM) using cGMP as a substrate (3).
as §2

human PMNL = assay: Inhibition of the formation of reactive oxygen species (FMLP-stimulated chemiluminescence) in human PMNL; type: cell-based; details: 0.05 h, FMLP 100 nM, luminol-potentiated chemiluminescence, AUC over 3 min, read-out: Inhibition of the FMLP-stimulated chemiluminiscence in human PMNL in vitro, inhibitory concentration as -log IC50 (converted)
Description: In the investigation of PDE4 inhibition at the cellular level, the activation of inflammatory cells has particular importance. An example which may be mentioned is the FMLP (N-formylmethionylleucylphenylalanine)-induced superoxide production of neutrophilic granulocytes, which can be measured as luminol-potentiated chemiluminescence [McPhail L C, Strum S L, Leone P A and Sozzani S, The neutrophil respiratory burst mechanism. In “Immunology Serie” 1992, 57, 47-76; ed. Coffey R G (Marcel Decker, Inc., New York-Basel-Hong Kong)].
The formation of reactive oxygen species determined by means of luminol-potentiated chemiluminescence (5) and the isolation of the PMNL from human blood (6) was carried out essentially as described in (5) and (6): equal-size portions (0.5 ml) of the cell suspension (10^7 cells/ml) were preincubated at 37° C. for 5 min. In the absence or presence of the compounds to be investigated in a buffer solution containing 140 mM NaCl, 5 mM KCl, 10 mM HEPES, 1 mM CaCl2/MgCl2, 1 mg/ml of glucose, 0.05% (w/v) BSA (bovine serum albumin), 10 μM luminol and 4 μM microperoxidase. […]
as §2

T2 sequence (Q14432 whole entry): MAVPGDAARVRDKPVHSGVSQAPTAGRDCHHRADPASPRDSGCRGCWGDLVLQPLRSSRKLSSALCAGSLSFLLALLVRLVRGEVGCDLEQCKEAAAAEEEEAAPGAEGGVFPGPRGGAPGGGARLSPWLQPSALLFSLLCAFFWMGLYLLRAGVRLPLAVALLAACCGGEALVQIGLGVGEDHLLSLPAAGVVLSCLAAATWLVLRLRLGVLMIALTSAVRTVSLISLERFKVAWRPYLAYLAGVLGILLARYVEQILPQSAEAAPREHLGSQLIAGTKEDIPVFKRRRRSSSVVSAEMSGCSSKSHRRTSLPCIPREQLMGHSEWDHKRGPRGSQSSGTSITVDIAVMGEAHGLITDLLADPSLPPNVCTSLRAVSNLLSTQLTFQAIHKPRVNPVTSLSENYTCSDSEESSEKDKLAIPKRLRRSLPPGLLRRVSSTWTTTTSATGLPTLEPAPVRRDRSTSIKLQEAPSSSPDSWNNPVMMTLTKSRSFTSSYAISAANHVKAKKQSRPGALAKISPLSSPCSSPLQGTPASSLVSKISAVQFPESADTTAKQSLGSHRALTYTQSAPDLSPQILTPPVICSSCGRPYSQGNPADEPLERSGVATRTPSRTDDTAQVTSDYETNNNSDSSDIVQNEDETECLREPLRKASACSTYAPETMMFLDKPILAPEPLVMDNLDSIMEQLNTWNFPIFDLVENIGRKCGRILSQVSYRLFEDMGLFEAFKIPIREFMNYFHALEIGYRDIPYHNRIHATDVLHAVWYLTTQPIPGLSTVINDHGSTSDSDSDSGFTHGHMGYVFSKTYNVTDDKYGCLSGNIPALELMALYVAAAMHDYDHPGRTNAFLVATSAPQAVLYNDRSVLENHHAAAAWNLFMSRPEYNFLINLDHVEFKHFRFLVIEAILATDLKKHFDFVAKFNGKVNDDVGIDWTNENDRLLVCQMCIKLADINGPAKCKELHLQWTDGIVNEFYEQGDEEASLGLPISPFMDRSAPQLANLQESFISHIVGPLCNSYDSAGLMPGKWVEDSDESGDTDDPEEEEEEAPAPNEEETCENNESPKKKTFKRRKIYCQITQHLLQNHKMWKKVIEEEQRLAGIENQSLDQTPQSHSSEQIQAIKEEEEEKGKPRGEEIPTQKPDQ

CCOc1cc2c(cc1OC)C(c1ccc(NS(=O)(=O)c3ccc(C)cc3)cc1)=N[C@H]1CCN(C)C[C@@H]21 (relative stereo) [Compound 2, (−)-cis-9-Ethoxy-8-methoxy-2-methyl-6-[4-(p-toluenesulfonamido)-phenyl]-1,2,3,4,4a,10b-hexahydro-benzo[c][1,6]naphthyridine]
IC50 [1]: 407 nM
IC50 [2]: 52.5 nM
IC50 [3]: 182 nM
PDE4 inhibitory concentration as -log IC50 [4]: 9.00
PDE1 inhibitory concentration as -log IC50 [5]: 5.14
melting point: 207 to 219 °C

COc1cc2c(cc1OC)[C@@H]1CN(C)CC[C@@H]1N=C2c1ccc(NS(=O)(=O)c2ccc(C)cc2)cc1 (relative stereo) [Tolafentrine, (−)-cis-8,9-Dimethoxy-2-methyl-6-[4-(p-toluenesulfonamido)-phenyl]-1,2,3,4,4a,10b-hexahydrobenzo[c][1,6]naphthyridine, reference compound]
IC50 [1]: 813 nM
IC50 [2]: 95.5 nM
IC50 [3]: 2340 nM
PDE4 inhibitory concentration as -log IC50 [4]: 7.20
IC50 (human PMNL): 851 nM
PDE1 inhibitory concentration as -log IC50 [5]: 4.75

CCOc1cc2c(cc1OCC)[C@@H]1CN(C)CC[C@@H]1N=C2c1ccc(NS(=O)(=O)c2ccc(C)cc2)cc1 (relative stereo) [Compound 1, (−)-cis-8,9-Diethoxy-2-methyl-6-[4-(p-toluenesulfonamido)-phenyl]-1,2,3,4,4a,10b-hexahydro-benzo[c][1,6]naphthyridine]
IC50 [1]: 1100 nM
IC50 [2]: 79.4 nM
IC50 [3]: 91.2 nM
PDE4 inhibitory concentration as -log IC50 [4]: 8.60
IC50 (human PMNL): 40.7 nM
PDE1 inhibitory concentration as -log IC50 [5]: <5
melting point: 267 to 268 °C
